Measured values reported in US10760110B2, “Antibiotic testing and screening system” (priority 2017, dated 2020).
In brackets after ≈: the same amount, converted by molar mass. Read-outs that look alike come from different tables or passages of the source.

Assays:
Conditions in all cases: Klebsiella pneumoniae
[1] = system: K. pneumoniae NVT1001 ΔramRΔompK35/36 mutant and its revertants; test: Etest MIC, ΔramRΔompK35/36 mutant and its revertants (Table 7); format: cell-based
[2] = system: K. pneumoniae NVT1001 strains with carbapenemase plasmids; test: Etest MIC of β-lactams, OmpK35/36 loss, ΔramR and/or carbapenemase (Table 9); format: cell-based, Klebsiella pneumoniae
Procedure, shortened: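 Cloned resistance genes in pACYC177 or pACYC184 were electroporated into K. pneumoniae NVT1001. MICs were determined by Etest and rounded up to the next two-fold value. Ceftazidime and cefotaxime against the blaOXA-48 construct were also tested by CLSI broth microdilution, with breakpoints from CLSI 2017 (cephalothin CLSI 2015, moxifloxacin EUCAST 2017).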

[3] = system: K. pneumoniae NVT1001 and its ΔompK35/36 and/or ΔramR mutants; test: Etest MIC, OmpK35/36 loss and AcrAB-TolC overexpression (ΔramR) strains (Table 6); format: cell-based, Klebsiella pneumoniae
Procedure, shortened: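 Ceftazidime and cefotaxime were tested by CLSI broth microdilution on the blaOXA-48 pACYC177 transformant of NVT1001, using CLSI 2017 breakpoints. Parent, porin-deleted (ΔompK35/36) and ΔramR strains were tested by Etest, with values between two-fold dilutions rounded up.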

CO/N=C(\C(=O)N[C@@H]1C(=O)N2C(C(=O)O)=C(COC(N)=O)CS[C@H]12)c1ccco1 [Cefuroxime]
MIC ([1]; ΔramRΔompK35/36::ompK35/36 revertant): 32 µg/mL
MIC ([1]; ΔramRΔompK35/36::ompK35 revertant): > 256 µg/mL
MIC ([1]; ΔramRΔompK35/36::ompK36 revertant): 32 µg/mL
MIC ([1]; ΔramRΔompK35/36::ramR revertant): 32 µg/mL
MIC ([1]; ΔramRΔompK35/36::ramR::ompK35/36 revertant): 4 µg/mL
MIC ([1]; ΔramRΔompK35/36::ramR::ompK35 revertant): 16 µg/mL
MIC ([1]; ΔramRΔompK35/36::ramR::ompK36 revertant): 8 µg/mL
MIC ([1]; ΔramRΔompK35/36 mutant): 128 µg/mL
MIC ([2]; IMP-8 on pACYC177, WT (NVT1001), read-out: MIC): > 256 µg/mL
MIC ([2]; IMP-8 on pACYC177, Δ35 (ΔompK35 mutant)): > 256 µg/mL
MIC ([2]; IMP-8 on pACYC177, Δ35/36 (ΔompK35/36 mutant)): > 256 µg/mL
MIC ([2]; IMP-8 on pACYC177, Δ36 (ΔompK36 mutant)): > 256 µg/mL
MIC ([2]; IMP-8 on pACYC177, ΔramR mutant): > 256 µg/mL
MIC ([2]; IMP-8 on pACYC177, ΔramRΔ35 (ΔramRΔompK35 mutant)): > 256 µg/mL
MIC ([2]; IMP-8 on pACYC177, ΔramRΔ35/36 (ΔramRΔompK35/36 mutant)): > 256 µg/mL
MIC ([2]; IMP-8 on pACYC177, ΔramRΔ36 (ΔramRΔompK36 mutant)): > 256 µg/mL
MIC ([2]; KPC-2 on pACYC177, WT (NVT1001), read-out: MIC): > 256 µg/mL
MIC ([2]; KPC-2 on pACYC177, Δ35 (ΔompK35 mutant)): > 256 µg/mL
MIC ([2]; KPC-2 on pACYC177, Δ35/36 (ΔompK35/36 mutant)): > 256 µg/mL
MIC ([2]; KPC-2 on pACYC177, Δ36 (ΔompK36 mutant)): > 256 µg/mL
MIC ([2]; KPC-2 on pACYC177, ΔramR mutant): > 256 µg/mL
MIC ([2]; KPC-2 on pACYC177, ΔramRΔ35 (ΔramRΔompK35 mutant)): > 256 µg/mL
MIC ([2]; KPC-2 on pACYC177, ΔramRΔ35/36 (ΔramRΔompK35/36 mutant)): > 256 µg/mL
MIC ([2]; KPC-2 on pACYC177, ΔramRΔ36 (ΔramRΔompK36 mutant)): > 256 µg/mL
MIC ([2]; KPC-3 on pACYC177, WT (NVT1001), read-out: MIC): > 256 µg/mL
MIC ([2]; KPC-3 on pACYC177, Δ35 (ΔompK35 mutant)): > 256 µg/mL
MIC ([2]; KPC-3 on pACYC177, Δ35/36 (ΔompK35/36 mutant)): > 256 µg/mL
MIC ([2]; KPC-3 on pACYC177, Δ36 (ΔompK36 mutant)): > 256 µg/mL
MIC ([2]; KPC-3 on pACYC177, ΔramR mutant): > 256 µg/mL
MIC ([2]; KPC-3 on pACYC177, ΔramRΔ35 (ΔramRΔompK35 mutant)): > 256 µg/mL
MIC ([2]; KPC-3 on pACYC177, ΔramRΔ35/36 (ΔramRΔompK35/36 mutant)): > 256 µg/mL
MIC ([2]; KPC-3 on pACYC177, ΔramRΔ36 (ΔramRΔompK36 mutant)): > 256 µg/mL
MIC ([2]; NDM-1 on pACYC177, WT (NVT1001), read-out: MIC): > 256 µg/mL
MIC ([2]; NDM-1 on pACYC177, Δ35 (ΔompK35 mutant)): > 256 µg/mL
MIC ([2]; NDM-1 on pACYC177, Δ35/36 (ΔompK35/36 mutant)): > 256 µg/mL
MIC ([2]; NDM-1 on pACYC177, Δ36 (ΔompK36 mutant)): > 256 µg/mL
MIC ([2]; NDM-1 on pACYC177, ΔramR mutant): > 256 µg/mL
MIC ([2]; NDM-1 on pACYC177, ΔramRΔ35 (ΔramRΔompK35 mutant)): > 256 µg/mL
MIC ([2]; NDM-1 on pACYC177, ΔramRΔ35/36 (ΔramRΔompK35/36 mutant)): > 256 µg/mL
MIC ([2]; NDM-1 on pACYC177, ΔramRΔ36 (ΔramRΔompK36 mutant)): > 256 µg/mL
MIC ([2]; OXA-48 on pACYC177, WT (NVT1001), read-out: MIC): 8 µg/mL
MIC ([2]; OXA-48 on pACYC177, Δ35 (ΔompK35 mutant)): 16 µg/mL
MIC ([2]; OXA-48 on pACYC177, Δ35/36 (ΔompK35/36 mutant)): 128 µg/mL
MIC ([2]; OXA-48 on pACYC177, Δ36 (ΔompK36 mutant)): 32 µg/mL
MIC ([2]; OXA-48 on pACYC177, ΔramR mutant): 64 µg/mL
MIC ([2]; OXA-48 on pACYC177, ΔramRΔ35 (ΔramRΔompK35 mutant)): 64 µg/mL
MIC ([2]; OXA-48 on pACYC177, ΔramRΔ35/36 (ΔramRΔompK35/36 mutant)): > 256 µg/mL
MIC ([2]; OXA-48 on pACYC177, ΔramRΔ36 (ΔramRΔompK36 mutant)): > 256 µg/mL
MIC ([2]; VIM-1 on pACYC177, WT (NVT1001), read-out: MIC): > 256 µg/mL
MIC ([2]; VIM-1 on pACYC177, Δ35 (ΔompK35 mutant)): > 256 µg/mL
MIC ([2]; VIM-1 on pACYC177, Δ35/36 (ΔompK35/36 mutant)): > 256 µg/mL
MIC ([2]; VIM-1 on pACYC177, Δ36 (ΔompK36 mutant)): > 256 µg/mL
MIC ([2]; VIM-1 on pACYC177, ΔramR mutant): > 256 µg/mL
MIC ([2]; VIM-1 on pACYC177, ΔramRΔ35 (ΔramRΔompK35 mutant)): > 256 µg/mL
MIC ([2]; VIM-1 on pACYC177, ΔramRΔ35/36 (ΔramRΔompK35/36 mutant)): > 256 µg/mL
MIC ([2]; VIM-1 on pACYC177, ΔramRΔ36 (ΔramRΔompK36 mutant)): > 256 µg/mL
MIC ([2]; no supplemental plasmid, WT (NVT1001), read-out: MIC): 4 µg/mL
MIC ([2]; no supplemental plasmid, Δ35 (ΔompK35 mutant)): 8 µg/mL
MIC ([2]; no supplemental plasmid, Δ35/36 (ΔompK35/36 mutant)): 32 µg/mL
MIC ([2]; no supplemental plasmid, Δ36 (ΔompK36 mutant)): 16 µg/mL
MIC ([2]; no supplemental plasmid, ΔramR mutant): 32 µg/mL
MIC ([2]; no supplemental plasmid, ΔramRΔ35 (ΔramRΔompK35 mutant)): 64 µg/mL
MIC ([2]; no supplemental plasmid, ΔramRΔ35/36 (ΔramRΔompK35/36 mutant)): 128 µg/mL
MIC ([2]; no supplemental plasmid, ΔramRΔ36 (ΔramRΔompK36 mutant)): > 256 µg/mL
MIC ([3]; WT, NVT1001, read-out: MIC): 4 µg/mL (≈ 9.43 µM)
MIC ([3]; Δ35, ΔompK35 mutant): 8 µg/mL (≈ 18.9 µM)
MIC ([3]; Δ35/36, ΔompK35/36 mutant): 32 µg/mL (≈ 75.4 µM)
MIC ([3]; Δ36, ΔompK36 mutant): 16 µg/mL (≈ 37.7 µM)
MIC ([3]; ΔramR mutant): 32 µg/mL (≈ 75.4 µM)
MIC ([3]; ΔramRΔ35, ΔramRΔompK35 mutant): 64 µg/mL (≈ 151 µM)
MIC ([3]; ΔramRΔ35/36, ΔramRΔompK35/36 mutant): 128 µg/mL (≈ 302 µM)
MIC ([3]; ΔramRΔ36, ΔramRΔompK36 mutant): > 256 µg/mL
